Read-outs that look alike come from different tables or passages of the source.
Tested on: HCV 1b genotype
Test: HCV Replicon assay (HCV 1b genotype)
Assay type: cell-based
Details: Hepatitis C virus, HCV 1b genotype replicon
Procedure, shortened: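 Cell-based HCV genotype 1b replicon assay in HCV-neo replicon cells, including replicons carrying NS5A resistance substitutions; luciferase reporter read-outs also used.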

[1] = read-out: Range (EC50 values against HCV 1b)

Row | Structure (SMILES) | EC50 (read-out: EC50) | EC50 [1]
1 | COC(=O)N[C@H](C(=O)N1[C@@H]2C[C@@H]2C[C@H]1c1ncc(-c2ccc3nc(-c4ccc5nc([C@@H]6C[C@H]7C[C@H]7N6C(=O)[C@@H](NC(=O)OC)C(C)C)[nH]c5c4)cnc3c2)[nH]1)C(C)C [Example 52, Methyl((1S)-1-(((1R,3S,5R)-3-(4-(2-(2-((1R,3S,5R)-2-((2S)-2-((methoxycarbonyl)amino)-3-methylbutanoyl)-2-azabicyclo[3.1.0]hex-3-yl)-1H-benzimidazol-5-yl)-6-quinoxalinyl)-1H-imidazol-2-yl)-2-azabicyclo[3.1.0]hex-2-yl)carbonyl)-2-methylpropyl)carbamate] | 0.0059 nM | –
2 | COC(=O)N[C@H](C(=O)N1[C@@H]2C[C@@H]2C[C@H]1c1ncc(-c2ccc3nc(-c4ccc5nc([C@@H]6C[C@H]7C[C@H]7N6C(=O)[C@@H](NC(=O)OC)C6CCOCC6)[nH]c5c4)cnc3c2)[nH]1)C1CCOCC1 [Example 53, Methyl((1S)-2-((1R,3S,5R)-3-(4-(2-(2-((1R,3S,5R)-2-((2S)-2-((methoxycarbonyl)amino)-2-(tetrahydro-2H-pyran-4-yl)acetyl)-2-azabicyclo[3.1.0]hex-3-yl)-1H-benzimidazol-5-yl)-6-quinoxalinyl)-1H-imidazol-2-yl)-2-azabicyclo[3.1.0]hex-2-yl)-2-oxo-1-(tetrahydro-2H-pyran-4-yl)ethyl)carbamate] | 1.81 nM | 1.01 to 1000 nM
3 | COC(=O)N[C@H](C(=O)N1[C@@H]2C[C@@H]2C[C@H]1c1ncc(-c2cnc3cc(-c4ccc5nc([C@@H]6C[C@H]7C[C@H]7N6C(=O)[C@@H](NC(=O)OC)C6CCOCC6)[nH]c5c4)ccc3n2)[nH]1)C1CCOCC1 [Example 58, Methyl((1S)-2-((1R,3S,5R)-3-(4-(6-(2-((1R,3S,5R)-2-((2S)-2-((methoxycarbonyl)amino)-2-(tetrahydro-2H-pyran-4-yl)acetyl)-2-azabicyclo[3.1.0]hex-3-yl)-1H-benzimidazol-5-yl)-2-quinoxalinyl)-1H-imidazol-2-yl)-2-azabicyclo[3.1.0]hex-2-yl)-2-oxo-1-(tetrahydro-2H-pyran-4-yl)ethyl)carbamate] | 0.849 nM | 0.0101 to 1 nM
4 | COC(=O)N[C@H](C(=O)N1[C@@H](C)CC[C@H]1c1ncc(-c2ccc(-c3ccc4cc(-c5cnc([C@@H]6CC[C@H](C)N6C(=O)[C@@H](NC(=O)OC)C6CCC(F)(F)CC6)[nH]5)ccc4c3)cc2)[nH]1)C1CCC(F)(F)CC1 [Example 71, Methyl((1S)-1-(4,4-difluorocyclohexyl)-2-((2S,5S)-2-(4-(4-(6-(2-((2S,5S)-1-((2S)-2-(4,4-difluorocyclohexyl)-2-((methoxycarbonyl)amino)acetyl)-5-methyl-2-pyrrolidinyl)-1H-imidazol-4-yl)-2-naphthyl)phenyl)-1H-imidazol-2-yl)-5-methyl-1-pyrrolidinyl)-2-oxoethyl)carbamate] | 0.00211 nM | –
5 | COC(=O)NC(C(=O)N1[C@@H]2C[C@@H]2C[C@H]1c1ncc(C#Cc2ccc3cc(-c4cnc([C@@H]5C[C@H]6C[C@H]6N5C(=O)C(NC(=O)OC)C5CCOCC5)[nH]4)ccc3c2)[nH]1)C1CCOCC1 (stereo partly drawn) [Example 75, methyl(2-((1R,3S,5R)-3-(4-(6-((2-((1R,3S,5R)-2-(((methoxycarbonyl)amino)(tetrahydro-2H-pyran-4-yl)acetyl)-2-azabicyclo[3.1.0]hex-3-yl)-1H-imidazol-4-yl)ethynyl)-2-naphthyl)-1H-imidazol-2-yl)-2-azabicyclo[3.1.0]hex-2-yl)-2-oxo-1-(tetrahydro-2H-pyran-4-yl)ethyl)carbamate] | 0.123 nM | 1.01 to 1000 nM
6 | COC(=O)N[C@H](C(=O)N1[C@@H]2C[C@@H]2C[C@H]1c1ncc(-c2ccc(-c3ccc4nc(-c5cnc([C@@H]6C[C@H]7C[C@H]7N6C(=O)[C@@H](NC(=O)OC)C(C)C)[nH]5)ccc4c3)cc2)[nH]1)C(C)C [Example 80, methyl((1S)-1-(((1R,3S,5R)-3-(4-(6-(4-(2-((1R,3S,5R)-2-((2S)-2-((methoxycarbonyl)amino)-3-methylbutanoyl)-2-azabicyclo[3.1.0]hex-3-yl)-1H-imidazol-4-yl)phenyl)-2-quinolinyl)-1H-imidazol-2-yl)-2-azabicyclo[3.1.0]hex-2-yl)carbonyl)-2-methylpropyl)carbamate] | 0.00108 nM | –
7 | COC(=O)N[C@H](C(=O)N1[C@@H]2C[C@@H]2C[C@H]1c1ncc(C#Cc2ccc3cc(-c4cnc([C@@H]5C[C@H]6C[C@H]6N5C(=O)[C@@H](NC(=O)OC)C5CCOCC5)[nH]4)ccc3c2)[nH]1)C1CCOCC1 [Example 82, Methyl((1S)-2-((1R,3S,5R)-3-(4-(6-((2-((1R,3S,5R)-2-((2S)-2-((methoxycarbonyl)amino)-2-(tetrahydro-2H-pyran-4-yl)acetyl)-2-azabicyclo[3.1.0]hex-3-yl)-1H-imidazol-4-yl)ethynyl)-2-naphthyl)-1H-imidazol-2-yl)-2-azabicyclo[3.1.0]hex-2-yl)-2-oxo-1-(tetrahydro-2H-pyran-4-yl)ethyl)carbamate] | 0.0422 nM | 0.0101 to 1 nM
8 | COc1cccc2c(C(=O)N3[C@@H]4C[C@@H]4C[C@H]3c3ncc(C#Cc4ccc5cc(-c6cnc([C@@H]7C[C@H]8C[C@H]8N7C(=O)c7nc(Cl)cc8c(OC)cccc78)[nH]6)ccc5c4)[nH]3)nc(Cl)cc12 [Example 93, 3-Chloro-1-(((1R,3S,5R)-3-(4-(6-((2-((1R,3S,5R)-2-((3-chloro-5-methoxy-1-isoquinolinyl)carbonyl)-2-azabicyclo[3.1.0]hex-3-yl)-1H-imidazol-4-yl)ethynyl)-2-naphthyl)-1H-imidazol-2-yl)-2-azabicyclo[3.1.0]hex-2-yl)carbonyl)-5-methoxyisoquinoline] | 40 nM | 1.01 to 1000 nM
9 | COC(=O)N[C@H](C(=O)N1[C@@H]2C[C@@H]2C[C@H]1c1ncc(-c2ccc3cc(C#Cc4cnc([C@@H]5C[C@H]6C[C@H]6N5C(=O)[C@@H](NC(=O)OC)C5CCOCC5)[nH]4)ccc3c2)[nH]1)C(C)C [Example 96, Methyl((1S)-2-((1R,3S,5R)-3-(4-((6-(2-((1R,3S,5R)-2-((2S)-2-((methoxycarbonyl)amino)-3-methylbutanoyl)-2-azabicyclo[3.1.0]hex-3-yl)-1H-imidazol-4-yl)-2-naphthyl)ethynyl)-1H-imidazol-2-yl)-2-azabicyclo[3.1.0]hex-2-yl)-2-oxo-1-(tetrahydro-2H-pyran-4-yl)ethyl)carbamate] | – | 0.0101 to 1 nM
10 | COC(=O)N[C@H](C(=O)N1[C@@H]2C[C@@H]2C[C@H]1c1ncc(C#Cc2ccc3cc(-c4cnc([C@@H]5CC[C@H](C)N5C(=O)[C@@H](NC(=O)OC)C5CCOCC5)[nH]4)ccc3c2)[nH]1)C1CCOCC1 [Example 98, Methyl((1S)-2-((2S,5S)-2-(4-(6-((2-((1R,3S,5R)-2-((2S)-2-((methoxycarbonyl)amino)-2-(tetrahydro-2H-pyran-4-yl)acetyl)-2-azabicyclo[3.1.0]hex-3-yl)-1H-imidazol-4-yl)ethynyl)-2-naphthyl)-1H-imidazol-2-yl)-5-methyl-1-pyrrolidinyl)-2-oxo-1-(tetrahydro-2H-pyran-4-yl)ethyl)carbamate] | – | 0.0101 to 1 nM
11 | COC(=O)N[C@H](C(=O)N1[C@@H]2C[C@@H]2C[C@H]1c1ncc(-c2ccc(-c3ccc4nc(-c5cnc([C@@H]6C[C@H]7C[C@H]7N6C(=O)[C@@H](NC(=O)OC)C(C)C)[nH]5)cnc4c3)cc2)[nH]1)C(C)C [Example 104] | 0.00201 nM | –
12 | CC(=O)N1[C@@H](C)CC[C@H]1c1ncc(-c2ccc(-c3ccc4cc(-c5cnc([C@@H]6CC[C@H](C)N6C(C)=O)[nH]5)ccc4c3)cc2)[nH]1 [Example 109, 2-((2S,5S)-1-Acetyl-5-methyl-2-pyrrolidinyl)-4-(4-(6-(2-((2S,5S)-1-acetyl-5-methyl-2-pyrrolidinyl)-1H-imidazol-4-yl)-2-naphthyl)phenyl)-1H-imidazole] | 180 nM | 1.01 to 1000 nM
13 | COC(=O)N[C@H](C(=O)N1C[C@@H](C)C[C@H]1c1ncc(-c2ccc(-c3ccc4nc(-c5cnc([C@@H]6C[C@H](C)CN6C(=O)[C@@H](NC(=O)OC)C6CCOCC6)[nH]5)ccc4c3)cc2)[nH]1)C1CCOCC1 [Example 114, Methyl((1S)-2-((2S,4S)-2-(4-(6-(4-(2-((2S,4S)-1-((2S)-2-((methoxycarbonyl)amino)-2-(tetrahydro-2H-pyran-4-yl)acetyl)-4-methyl-2-pyrrolidinyl)-1H-imidazol-4-yl)phenyl)-2-quinolinyl)-1H-imidazol-2-yl)-4-methyl-1-pyrrolidinyl)-2-oxo-1-(tetrahydro-2H-pyran-4-yl)ethyl)carbamate] | – | 0.0101 to 1 nM
14 | COC(=O)N[C@H](C(=O)N1CCOC[C@H]1c1nc(-c2ccc(-c3ccc4cc(-c5c[nH]c([C@@H]6COCCN6C(=O)[C@@H](NC(=O)OC)C6CCOCC6)n5)ccc4c3)cc2)c[nH]1)C1CCOCC1 [Example 116, Methyl((1S)-2-((3R)-3-(4-(4-(6-(2-((3R)-4-((2S)-2-((methoxycarbonyl)amino)-2-(tetrahydro-2H-pyran-4-yl)acetyl)-3-morpholinyl)-1H-imidazol-4-yl)-2-naphthyl)phenyl)-1H-imidazol-2-yl)-4-morpholinyl)-2-oxo-1-(tetrahydro-2H-pyran-4-yl)ethyl)carbamate] | – | 0.0101 to 1 nM
15 | COC(=O)N[C@H](C(=O)N1CCCC[C@H]1c1nc(-c2ccc(-c3ccc4cc(-c5c[nH]c([C@@H]6CCCCN6C(=O)[C@@H](NC(=O)OC)C(C)C)n5)ccc4c3)cc2)c[nH]1)C(C)C [Example 118, Methyl((1S)-1-(((2S)-2-(4-(4-(6-(2-((2S)-1-((2S)-2-((methoxycarbonyl)amino)-3-methylbutanoyl)-2-piperidinyl)-1H-imidazol-4-yl)-2-naphthyl)phenyl)-1H-imidazol-2-yl)-1-piperidinyl)carbonyl)-2-methylpropyl)carbamate] | 0.0374 nM | 0.0101 to 1 nM
16 | COC(=O)N[C@H](C(=O)N[C@@H](C)c1ncc(-c2ccc(-c3ccc4cc(-c5cnc([C@H](C)NC(=O)[C@@H](NC(=O)OC)C(C)C)[nH]5)ccc4c3)cc2)[nH]1)C(C)C [Example 124, Methyl((1S)-1-(((1S)-1-(4-(4-(6-(2-((1S)-1-(((2S)-2-((methoxycarbonyl)amino)-3-methylbutanoyl)amino)ethyl)-1H-imidazol-4-yl)-2-naphthyl)phenyl)-1H-imidazol-2-yl)ethyl)carbamoyl)-2-methylpropyl)carbamate] | – | 0.0101 to 1 nM

Source: patent publication US9006455B2 (Bristol-Myers Squibb Company, priority 2009, dated 2015)
